Reference: patent US10392405B2, “Macrocyclic immunomodulators” (CHEMOCENTRYX, INC., priority 2017, dated 2019)

Target: human PD-L1 / Human PD-1 (Homo sapiens (Human), UniProt Q9NZQ7)
Assay: Enzyme-Linked Immunosorbent Assay (ELISA), PD-1/PD-L1 binding
Settings: plate-coated human PD-L1, biotinylated human PD-1, absorbance 450 nm
Description: 96 Well plates were coated with 1 μg/mL of human PD-L1 (obtained from R&D) in PBS overnight at 4° C. The wells were then blocked with 2% BSA in PBS (W/V) with 0.05% TWEEN-20 for 1 hour at 37° C. The plates were washed 3 times with PBS/0.05% TWEEN-20 and the compounds were serial diluted (1:5) in dilution medium and added to the ELISA plates. Human PD-1 and biotin 0.3 μg/mL (ACRO Biosystems) were added and incubated for 1 hour at 37° C. then washed 3 times with PBS/0.05% TWEEN-20. A second block was performed with 2% BSA in PBS (W/V)/0.05% TWEEN-20 for 10 min at 37° C. and was washed 3 times with PBS/0.05% TWEEN-20. Streptavidin-HRP was added for 1 hour at 37° C. then washed 3 times with PBS/0.05% TWEEN-20. TMB substrate was added and reacted for 20 min at 37° C. A stop solution (2 N aqueous H2SO4) was added. The absorbance was read at 450 nm using a micro-plate spectrophotometer.
Compounds in Table 1 were prepared by methods as described in the Examples and evaluated according to the assay above. The IC50 of the compounds are presented in Table 1 as follows: • +, 20000 nM≥IC50≥500 nM; • ++, 500 nM≥IC50≥100 nM; • +++, 100 nM>IC50.

Chain of human PD-L1 / Human PD-1 (Q9NZQ7 19-239): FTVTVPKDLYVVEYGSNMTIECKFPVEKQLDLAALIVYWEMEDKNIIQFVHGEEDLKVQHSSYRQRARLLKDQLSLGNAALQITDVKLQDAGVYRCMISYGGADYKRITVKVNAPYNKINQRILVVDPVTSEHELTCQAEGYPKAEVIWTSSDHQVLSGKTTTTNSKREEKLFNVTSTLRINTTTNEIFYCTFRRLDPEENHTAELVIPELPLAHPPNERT

| IC50 | SMILES |
| --- | --- |
| 500 to 20000 nM | Cc1c(COc2cc3c(cc2Cl)CN[C@H](C(=O)O)CCNC(=O)c2cncc(c2)CO3)cccc1-c1ccccc1 [Compound 1.009] |
| < 100 nM | Cc1c(COc2cc3c(cc2Cl)CN[C@H](CO)CCCCNC(=O)c2cncc(c2)CO3)cccc1-c1cccc(OCCCN2CCC(F)CC2)c1C [Compound 1.025] |
| 100 to 500 nM | Cc1c(COc2cc3c(cc2Cl)CN[C@H](CC(=O)O)CCCCNC(=O)c2cncc(c2)CO3)cccc1-c1ccccc1 [Compound 1.011] |
| 100 to 500 nM | Cc1c(COc2cc3c(cc2Cl)CN[C@H](C(=O)O)COCCNC(=O)c2cncc(c2)CO3)cccc1-c1ccccc1 [Compound 1.008] |
| < 100 nM | Cc1c(COc2cc3c(cc2Cl)CNC(CO)CCCCNC(=O)c2cncc(c2)CO3)cccc1-c1cccc(OCCCN2CC[C@@H](O)C2)c1C (single isomer, unassigned) [Compound 1.024] |
| 100 to 500 nM | O=C1NCCCC[C@@H](C(=O)O)NCc2cc(Cl)c(O[C@H]3CCc4c(-c5ccccc5F)cccc43)cc2OCc2cncc1c2 [Compound 1.007] |
| < 100 nM | Cc1c(COc2cc3c(cc2Cl)CN[C@H](C(=O)O)CCCCNC(=O)c2cc(C#N)cc(c2)CO3)cccc1-c1cccc(OCCCN2CCC(F)CC2)c1C [Compound 1.021] |
| 100 to 500 nM | Cc1c(COc2cc3c(cc2Cl)CN[C@H](C(=O)O)CCCCNC(=O)CCCCO3)cccc1-c1ccccc1 [Compound 1.012] |
| < 100 nM | Cc1c(COc2cc3c(cc2Cl)CN[C@H](C(=O)O)CCCCNC(=O)c2cncc(c2)CO3)cccc1-c1cccc(OCCCN2CC(O)C2)c1C [Compound 1.020] |
| < 100 nM | Cc1c(COc2cc3c(cc2Cl)CN[C@H](C(=O)O)CCCCNC(=O)c2cncc(c2)CO3)cccc1-c1cccc(OCCCN2CCC(O)CC2)c1C [Compound 1.004] |
| 100 to 500 nM | Cc1c(COc2cc3c(cc2Cl)CN[C@@H](CO)C(=O)NCCNC(=O)c2cncc(c2)CO3)cccc1-c1ccccc1 [Compound 1.006] |
| 100 to 500 nM | Cc1c(COc2cc3c(cc2Cl)CN[C@H](C(=O)O)CCCNC(=O)c2cncc(c2)CO3)cccc1-c1ccccc1 [Compound 1.010] |
| < 100 nM | Cc1c(COc2cc3c(cc2Cl)CN[C@H](C(=O)O)CCCCNC(=O)c2cncc(c2)CO3)cccc1-c1ccccc1 [Compound 1.016] |
| < 100 nM | Cc1c(COc2cc3c(cc2Cl)CN[C@H](C(=O)O)CCCCNC(=O)c2cncc(c2)CO3)cccc1-c1ccc2c(c1)OCCO2 [Compound 1.002] |
| 500 to 20000 nM | Cc1c(COc2cc3c(cc2Cl)CN[C@H](C(=O)O)CCCCNC(=O)c2cncc(c2)CO3)cccc1-c1cccc(OCCCCl)c1C [Compound 1.005] |
| < 100 nM | O=C1NCCCC[C@@H](C(=O)O)NCc2cc(Cl)c(O[C@H]3CCc4c(-c5ccc6c(c5F)OCCO6)cccc43)cc2OCc2cncc1c2 [Compound 1.014] |
| 500 to 20000 nM | Cc1c(COc2cc3c(cc2Cl)CN[C@H](C(=O)O)CCCCNC(=O)c2cncc-3c2)cccc1-c1ccccc1 [Compound 1.013] |
| < 100 nM | COc1cccc(-c2cccc(COc3cc4c(cc3Cl)CN[C@H](C(=O)O)CCCCNC(=O)c3cncc(c3)CO4)c2C)c1F [Compound 1.001] |
| < 100 nM | Cc1c(COc2cc3c(cc2Cl)CN[C@H](C(=O)O)CCCCNC(=O)c2cncc(c2)CO3)cccc1-c1ccccc1F [Compound 1.003] |
